Assay results from patent publication US20250388623A1, “PEPTIDE INHIBITOR AND USE THEREOF” (CHENGDU BRILLIANT INSPIRATION BIOTHERAPEUTICS CO., LTD, priority 2022, published 2025).
pIC50: −log10 of the molar value. Bridge positions count the residues as written; N and C are the ends. Peptide text beside a SMILES is read from it.

Columns and labels:
[1] = biological target: T1, binding of TSP-1 protein to CD36, a TSP-1 receptor protein (Homo sapiens, UniProt P07996); assay: ELISA: blocking of CD36 binding to TSP-1 protein; conditions: for inhibition at 100 µM: 3 h, 100 μM polypeptide, 0.25 μg/mL Fc-tagged CD36, blocking of CD36 binding to TSP-1, read-out: Blocking rate (Mean, %); for pIC50: concentrations 0-100 μM
T1 construct: purchased novoprotein (TSP-1); R&D Systems (Fc-tagged CD36) CU45 (TSP-1); 1955-CD-050 (CD36-Fc)
Outline: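 Plate-bound TSP-1 (2 μg/mL coat) incubated 3 h at 37 °C with Fc-tagged CD36 (0.25 μg/mL final) ± polypeptide (100 μM final single-point; 0.5–100 μM for IC50); bound CD36 detected with FITC anti-Fc antibody fluorescence. Blocking rate = (control − treated)/control × 100%; IC50 from concentration dependence.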

[2] = tested on: rat fibrotic disease model (bleomycin); assay: Hydroxyproline (HYP) content / collagen deposition in lung, bleomycin rat fibrosis model; assay type: in vivo; conditions: 2 mg/kg intratracheal twice weekly x4 from Day 1, Day 15, model group = 100.00
Protocol: This Example was to evaluate the inhibitory effect of polypeptides on collagen deposition at the pathological sites of pulmonary fibrosis. 6- to 8-week-old male SD rats weighing 200 to 220 g were used as subjects for the study. The experimental animals were randomized into groups, 8 animals in each group. On the day of modeling (Day 1), a single dose of 1.8 USP/kg of bleomycin solution was administered via the tracheal route to the model group and each peptide-treated group to induce the model. Starting on Day 1, each peptide-treated group received intratracheal administration of the peptide at a dosage of 2 mg/kg, with a dosing frequency of twice a week, for a total of four administrations. The model group received an equal volume of solvent (saline) as a control, with the volume being 100 μL. The procedure followed that described in Example 4. Day 15 was set as the experimental endpoint for assessing the degree of fibrosis in the model.
On Day 15, the animals were dissected to collect lung tissues. After grinding the rat lung tissues in liquid nitrogen, total hydroxyproline (HYP) was extracted from the tissues using acid hydrolysis, and the HYP content was determined by chloramine T oxidation colorimetry. 1 mL of 6N HCl was added per 100 mg of tissue and thoroughly mixed, followed by hydrolysis at 121° C. for 6 hours. The hydrolysate was centrifuged, and the resulting supernatant was used for HYP content determination. To a 96-well plate, the hydrolysate supernatant, or a gradient of HYP standard solutions (Sigma, Catalog No. V900395-25G) at different concentrations, was added in 10 μL per well, and dried in an oven at 65° C. 100 μL per well of 1.4% chloramine T oxidizing solution (Sigma, Catalog No. 23270-50G) was added, and incubated at room temperature for 15 minutes. 100 μL per well of Ehrlich's color development solution (Solarbio, Catalog No. G1290) was added and incubated at 65° C. for 30 minutes. The absorbance of each sample well was measured at 560 nm (OD560) using a multifunctional microplate reader (TECAN, model Infinite 200 Pro). The total HYP content in the lung tissue from each experimental group was calculated to determine the reduction percentage of HYP content in the peptide-treated group relative to the model group, and the inhibitory effect of the peptide molecule on collagen deposition at the fibrotic site was assessed.

[3] = tested on: rat fibrotic disease model (bleomycin); assay: Lung index and fibrotic pathology (Masson's trichrome) in bleomycin rat fibrosis model; assay type: in vivo; conditions: for Lung index Mean(‰): 2 mg/kg intratracheal twice weekly x4 from Day 1, Day 15, BLM model 8.63, negative control 4.62; for Fibrosis score Mean: 2 mg/kg intratracheal twice weekly x4 from Day 1, Day 15, Masson's trichrome, BLM model 3.34, negative control 0.96
Protocol: This Example was to assess the inhibitory effect of polypeptide administration on the expression levels of pro-fibrotic factors at pathological fibrotic sites. 6- to 8-week-old male SD rats weighing 200 to 220 g were used as subjects for the study. The experimental animals were randomized into groups, 6 animals in each group. On the day of modeling (Day 1), a single dose of 1.8 USP/kg of bleomycin solution was administered via the tracheal route to the BLM model group and each peptide-treated group to induce the model. The negative control group was given an equal volume of saline. Starting on Day 1, each peptide-treated group received intratracheal administration of the peptide at a dosage of 2 mg/kg, with a dosing frequency of twice a week, for a total of four administrations. The BLM model group and the negative control group received an equal volume of solvent (saline) as a control, with the volume being 100 μL. The procedure followed that described in Example 4.
On Day 15, the lung tissues were dissected, washed with saline to remove blood stains, dried with gauze, and weighed. The lung index was calculated (lung index=(wet lung weight/body weight)×1000. This index reflects the general condition of the lung tissue, including edema, inflammation, and fibrosis). Histopathological analysis was performed on the dissected lung tissues. The lung tissues were perfused with 5 mL of paraformaldehyde via the trachea and placed in 40 mL of paraformaldehyde. A small amount of gauze was added to ensure the lung tissues were completely immersed in the fixative solution. The tissues were fixed for more than 24 hours. One lobe of the left lung and four lobes of the right lung were trimmed to the maximum coronal plane, and the left and right lungs were individually placed in two embedding cassettes, and then paraffin-embedded to make 3 μm sections. Masson's trichrome staining was performed as described in Example 7. After digital scanning, for each lung lobe, ≤10 visual fields were captured under a 10× magnification. The severity score of fibrosis was assessed to evaluate the inhibitory effects of the polypeptides on fibrotic deposition at pathological fibrotic sites.

T1 sequence (P07996 19-1170): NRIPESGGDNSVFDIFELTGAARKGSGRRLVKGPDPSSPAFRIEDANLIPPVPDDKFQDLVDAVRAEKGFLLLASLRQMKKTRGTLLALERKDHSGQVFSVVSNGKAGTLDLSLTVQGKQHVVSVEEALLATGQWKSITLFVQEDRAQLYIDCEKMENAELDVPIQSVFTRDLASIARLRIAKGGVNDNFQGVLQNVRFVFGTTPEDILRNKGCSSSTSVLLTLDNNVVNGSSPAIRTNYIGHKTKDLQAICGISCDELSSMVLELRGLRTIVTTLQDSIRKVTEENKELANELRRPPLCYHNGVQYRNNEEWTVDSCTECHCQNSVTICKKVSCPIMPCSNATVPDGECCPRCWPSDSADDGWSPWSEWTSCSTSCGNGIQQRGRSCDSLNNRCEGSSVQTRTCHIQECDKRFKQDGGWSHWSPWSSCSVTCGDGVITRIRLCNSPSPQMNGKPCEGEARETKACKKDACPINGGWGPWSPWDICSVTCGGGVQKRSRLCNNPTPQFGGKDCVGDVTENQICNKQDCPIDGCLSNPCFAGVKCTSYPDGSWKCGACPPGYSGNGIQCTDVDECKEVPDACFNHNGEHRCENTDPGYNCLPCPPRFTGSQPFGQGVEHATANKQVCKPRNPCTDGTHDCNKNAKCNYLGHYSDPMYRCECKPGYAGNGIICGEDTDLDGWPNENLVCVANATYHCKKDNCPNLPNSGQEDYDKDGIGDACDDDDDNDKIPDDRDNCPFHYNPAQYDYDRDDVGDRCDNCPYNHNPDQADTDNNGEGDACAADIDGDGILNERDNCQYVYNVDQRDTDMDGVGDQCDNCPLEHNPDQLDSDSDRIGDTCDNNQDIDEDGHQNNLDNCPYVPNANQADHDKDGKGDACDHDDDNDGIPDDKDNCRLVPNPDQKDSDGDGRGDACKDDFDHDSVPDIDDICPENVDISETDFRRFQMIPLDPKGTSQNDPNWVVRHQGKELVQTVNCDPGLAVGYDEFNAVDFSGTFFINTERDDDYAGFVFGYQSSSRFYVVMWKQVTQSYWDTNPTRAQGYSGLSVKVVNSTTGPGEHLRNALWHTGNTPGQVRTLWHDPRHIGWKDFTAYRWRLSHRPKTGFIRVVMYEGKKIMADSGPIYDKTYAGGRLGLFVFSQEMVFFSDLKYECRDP

Molecule	inhibition at 100 µM [1] [%]	HYP content in lung tissue relative to model group, Mean (%) [2] [%]	pIC50 [1]	Lung index Mean(‰) [3]	Fibrosis score Mean [3]
C[C@@H]1NC(=O)[C@H](CC(=O)O)NC(=O)[C@H](CCC(N)=O)NC(=O)[C@H]([C@@H](C)O)NC(=O)[C@H](CC(N)=O)NC(=O)[C@H](CC(=O)O)NC(=O)[C@H](CCC(=O)O)NC1=O [SEQ ID NO: 40, cyclo[Thr-Gln-Asp-Ala-Glu-Asp-Asn]] (cyclo(AEDNTQD))	37.5	72.93	–	–	–
CC(=O)N[C@H](C(=O)N[C@H]1CSSC[C@@H](C(=O)O)NC(=O)[C@H](CC(N)=O)NC(=O)[C@H](CC(=O)O)NC(=O)[C@H](CCC(=O)O)NC(=O)[C@H](C)NC(=O)[C@H](CC(=O)O)NC1=O)[C@@H](C)O [SEQ ID NO: 43, Ac-Thr-cyclo[Cys-Asp-Ala-Glu-Asp-Asn-Cys]] (Ac-TCDAEDNC-OH; disulfide 2-8)	52	72.91	5.44	7.11 ‰	2.72
CC(=O)N[C@H](C(=O)N[C@H]1CSSC[C@@H](C(N)=O)NC(=O)[C@H](CC(N)=O)NC(=O)[C@H](CC(=O)O)NC(=O)[C@H](CCC(=O)O)NC(=O)[C@H](C)NC(=O)[C@H](CC(=O)O)NC1=O)[C@@H](C)O [SEQ ID NO: 44, Ac-Thr-cyclo[Cys-Asp-Ala-Glu-Asp-Asn-Cys]-NH2] (Ac-TCDAEDNC-NH2; disulfide 2-8)	52.9	65.55	5.17	–	–
C[C@@H]1NC(=O)[C@H]([C@@H](C)O)NC(=O)[C@H](CC(N)=O)NC(=O)[C@H](CC(=O)O)NC(=O)[C@H](CCC(=O)O)NC(=O)[C@@H]2CCCN2C(=O)[C@H](CC(=O)O)NC(=O)[C@H](CCC(N)=O)NC(=O)[C@H]([C@@H](C)O)NC(=O)[C@H](CO)NC1=O [SEQ ID NO: 46, cyclo[Thr-Gln-Asp-Pro-Glu-Asp-Asn-Thr-Ala-Ser]] (cyclo(ASTQDPEDNT))	56.1	66.46	–	–	–
Ac-TQDAEDN-NH2 [SEQ ID NO: 06, Ac-Thr-Gln-Asp-Ala-Glu-Asp-Asn-NH2]	17.7	80.30	–	7.17 ‰	2.66
Ac-TQDAEDNTASH-NH2 [SEQ ID NO: 33, Ac-Thr-Gln-Asp-Ala-Glu-Asp-Asn-Thr-Ala-Ser-His-NH2]	21.4	80.28	–	7.37 ‰	2.63
Ac-TQDAEDPTA-NH2 [SEQ ID NO: 22, Ac-Thr-Gln-Asp-Ala-Glu-Asp-Pro-Thr-Ala-NH2]	40.9	68.30	–	7.39 ‰	2.70
Ac-TQDAEDPTAS-NH2 [SEQ ID NO: 25, Ac-Thr-Gln-Asp-Ala-Glu-Asp-Pro-Thr-Ala-Ser-NH2]	33	81.45	–	7.42 ‰	2.62
Ac-TQDPEDNTAS-NH2 [SEQ ID NO: 26, Ac-Thr-Gln-Asp-Pro-Glu-Asp-Asn-Thr-Ala-Ser-NH2]	53.8	78.75	–	7.17 ‰	2.43
